Literature values, collected in patent publication US20070149611A1, “CB-DELTA8-THC COMPOSITION” (priority 2003, published 2007).

Columns and labels:
[1] = CBD alone
[2] = Δ^9-THC is easily oxidized to cannabinol
[3] = more effective than Δ^9-THC; Abrahamov et al, 1995
[4] = relative to Δ^9-THC

In the case of C=C(C)[C@@H]1CCC(C)=C[C@H]1c1c(O)cc(CCCCC)cc1O [CBD, cannabidiol], the “effects when administered on its own” value [1] is listed as “no noticeable effects”.

In the case of CCCCCc1cc(O)c2c(c1)OC(C)(C)[C@@H]1CC=C(C)C[C@@H]21 [Δ^8-THC, Δ^8-tetrahydrocannabinol], the “stability towards oxidation to cannabinol” value [2] is listed as “very stable”, the “anti-emetic effectiveness relative to Δ^9-THC” value [3] is listed as 200% and the “psychometric potency, less potent than Δ^9-THC (generally considered)” value [4] is listed as 50%. The “psychometric potency, times less potent than Δ^9-THC (in some cases)” value [4] was 3-10 times.
